pEC50: −log10 of the molar value. Strand notation (5' to 3'): a small letter for the sugar, then the base; units joined by * are phosphorothioate-linked, units joined directly phosphodiester-linked; [ ] holds rarer units or linkages, { } end groups; capitals alone tell only the bases. [UNA-N] = unlocked nucleic acid (N: the base); [invdT] = inverted (3'-3') thymidine; d = 2'-deoxy (DNA); m = 2'-O-methyl; f = 2'-fluoro
What was measured:
[1] = tested on: human EPAS1 (Hif2α) cDNA in psiCHECK2 (Renilla luciferase/EPAS1 fusion mRNA) in Hep3B cells; assay: Hif2α RNAi trigger EC50 determination, dual-luciferase reporter assay; assay type: cell-based; conditions: UNA modified at site 6 or 7, EPAS1-psiCHECK2, same conditions, read-out: EC50 UNAs EC50
Source text: Candidate sequences were identified by in silico analysis and screened as chemically modified canonical siRNAs in vitro. For screening purposes, the human EPAS1 (Hif2α) cDNA sequence (accession #NM 001430) was synthesized and cloned (DNA 2.0, Menlo Park, Calif.) into a commercially-available reporter-based screening plasmid, psiCHECK2 (Promega, Madison, Wis.) which generated a Renilla luciferase/EPAS1 fusion mRNA. For RNAi trigger efficacy evaluation, Hep3B cells, a human hepatocellular carcinoma line, were plated at 10,000 cells per well in 96-well format. Each of the 187 EPAS1 RNAi triggers, in two subsets, was co-transfected at two concentrations, 1 nM and 0.1 nM, with 25 ng EPAS1-psiCHECK2 plasmid DNA per well and 0.2 μL LipoFectamine 2000 (Life Technologies) per well. Gene knockdown was determined by measuring Renilla luciferase levels normalized to the levels of constitutively-expressed firefly luciferase, also present on the psiCHECK-2 plasmid, using the Dual Luciferase Reporter Assay (Promega, Madison, Wis.) Table 5.
The eight best canonical sequences were further evaluated by determining the EC50 concentration. Each trigger was assessed for knockdown under the same conditions and assays as above, but at 10 different concentrations ranging from 0.00051 nM to 10 nM. EC50 were determined using GraphPad Prism software. Each of the top five canonical sequences were modified to contain UNA at sites 6 and 7. These triggers, along with their parent canonical sequences, were evaluated side-by-side for EC50 concentration determination using the same conditions and assays as above, Table 6.

[2] = tested on: human (tumor) Hif2α (EPAS1) mRNA; assay: Hif2α knockdown in orthotopic RCC tumor bearing mice, single injection of RNAi trigger-delivery polymer conjugate, RT-qPCR (Table 7); assay type: in vivo; conditions: single tail vein injection, relative to isotonic glucose
In short: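 A single intravenous dose of Hif2α RNAi trigger–delivery polymer conjugate, or isotonic glucose vehicle, was given to nude mice with subcapsular A498-SEAP renal tumours (about 5–6 weeks old). At the indicated time, tumour RNA was assayed by biplex TaqMan qPCR against CycA, and relative expression was calculated by ΔΔCT versus vehicle.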

[3] = tested on: human (tumor) Hif2α (EPAS1) mRNA; assay: Hif2α expression in RCC tumor bearing mice after single injection of RGD targeted conjugates, 72 h, RT-qPCR (Table 11); assay type: in vivo; conditions: trigger 80 μg, polymer 126 280 μg
Method: Female athymic nude mice were anesthetized with ˜3% isoflourane and placed in the right lateral decubitus position. A small, 0.5-1 cm, longitudinally abdominal incision in the left flank was made. Using a moist cotton swab, the left kidney was lifted out of the peritoneum and gently stabilized. Just before injection, a 1.0 ml syringe was filled with the cell/Matrigel mixture and a 27 gauge needle catheter was attached to the syringe tip. The filled syringe was then attached to a syringe pump (Harvard Apparatus, model PHD2000) and primed to remove air. The tip of a 27-gauge needle catheter attached to a syringe was inserted just below the renal capsule near the caudal pole and the tip of the needle was then carefully advanced cranially along the capsule 3-4 mm. A 10 μl aliquot of 2:1 (vol:vol) cell/matrigel mixture containing about 300,000 cells was slowly injected into the kidney parenchyma using a syringe pump. The needle was left in the kidney for 15-20 seconds to ensure the injection was complete. The needle was then removed from the kidney and a cotton swab was placed over the injection site for 30 seconds to prevent leakage of the cells or bleeding. The kidney was then gently placed back into the abdomen and the abdominal wall was closed. Serum was collected every 7-14 days after implantation to monitor tumor growth using a commercial SEAP assay kit. For most studies, tumor mice were used 5-6 weeks after implantation, when tumor measurements were typically around 4-8 mm.
In preparation for quantitative PCR, total RNA was isolated from tissue samples homogenized in TriReagent (Molecular Research Center, Cincinnati, Ohio) following the manufacturer's protocol. Approximately 500 ng RNA was reverse-transcribed using the High Capacity cDNA Reverse Transcription Kit (Life Technologies). For human (tumor) Hif2α (EPAS1) expression, pre-manufactured TaqMan gene expression assays for human Hif2α (Catalog #4331182) and CycA (PPIA) Catalog #: 4326316E) were used in biplex reactions in triplicate using TaqMan Gene Expression Master Mix (Life Technologies) or VeriQuest Probe Master Mix (Affymetrix). For human (tumor) VegFa (VEGFA) expression, pre-manufactured TaqMan gene expression assays for human VegFa (Catalog #4331182, Assay ID: Hs00900055) and CycA (Part#: 4326316E) were used in biplex reactions in triplicate using TaqMan Gene Expression Master Mix (Life Technologies) or VeriQuest Probe Master Mix (Affymetrix). Quantitative PCR was performed by using a 7500 Fast or StepOnePlus Real-Time PCR system (Life Technologies). The ΔΔCT method was used to calculate relative gene expression.
RGD targeted HiF2α-RNAi trigger delivery polymer conjugates were formed using polymer 126, 100A, or 006. The RNAi trigger, μg indicates the quantity of trigger reacted with polymer. The polymer was modified with the indicated RGD mimic and PEG modifying agents as described above. Kidney RCC tumor-bearing mice were generated as described and treated with a single tail vein injection of isotonic glucose (G1) or the indicated Hif2α RNAi trigger-delivery polymer conjugate. Mice were euthanized 72 h (day 4) after injection and total RNA was prepared from kidney tumor using Trizol reagent following manufacturer's recommendation. Relative HiF2α mRNA levels were determined by RT-qPCR as described and compared to mice treated with delivery buffer (isotonic glucose) only (Table 11).

[4] = RNAi trigger 50 μg, polymer 064 125 μg

Substance | pEC50 [1] | other results
AD00988: Hif2α RNAi trigger, XD-02335 sequence modified to contain UNA at site 6 (antisense dTfGmUfAmA[UNA-A]mAfCmAfAmUfUmGfUmGfUmAfCmUdT*dT; sense fAmGfUmAfCmAfCmAfAmUfUmGfUmUfUmUfAmCfA[invdT]) | 9.08 | 
AD00989: Hif2α RNAi trigger, XD-02371 sequence modified to contain UNA at site 6 (antisense dTfCmUfAmG[UNA-C]mAfAmCfAmAfAmAfCmCfUmUfAmAdT*dT; sense fUmUfAmAfGmGfUmUfUmUfGmUfUmGfCmUfAmGfA[invdT]) | 9.43 | 
AD00990: Hif2α RNAi trigger, XD-02404 sequence modified to contain UNA at site 6 (antisense dTfAmAfAmU[UNA-C]mGfUmUfAmCfGmUfUmGfAmCfAmGdT*dT; sense dTfGmAfGmGfAmGfCmUfUmGfUmGfUmGfUmUfCmGdT*dT) | 9.81 | 
AD00991: Hif2α RNAi trigger, XD-02407 sequence modified to contain UNA at site 6 (antisense dTfUmUfCmA[UNA-U]mGfAmAfAmUfCmGfUmUfAmCfGmUdT*dT; sense fAmCfGmUfAmAfCmGfAmUfUmUfCmAfUmGfAmAfA[invdT]) | 9.46 | 
AD00992: Hif2α RNAi trigger, XD-02415 sequence modified to contain UNA at site 6 (antisense dTfAmAfGmU[UNA-U]mAfAmGfCmUfCmCfCmAfUmAfCmAdT*dT; sense fUmGfUmAfUmGfGmGfAmGfCmUfUmAfAmCfUmUfA[invdT]) | 9.85 | 
AD00993: Hif2α RNAi trigger, XD-02335 sequence modified to contain UNA at site 7 (antisense dTfGmUfAmAfA[UNA-A]fCmAfAmUfUmGfUmGfUmAfCmUdT*dT; sense fAmGfUmAfCmAfCmAfAmUfUmGfUmUfUmUfAmCfA[invdT]) | 9.26 | 
AD00994: Hif2α RNAi trigger, XD-02371 sequence modified to contain UNA at site 7 (antisense dTfCmUfAmGfC[UNA-A]fAmCfAmAfAmAfCmCfUmUfAmAdT*dT; sense fUmUfAmAfGmGfUmUfUmUfGmUfUmGfCmUfAmGfA[invdT]) | 10.09 | 
AD00995: Hif2α RNAi trigger, XD-02404 sequence modified to contain UNA at site 7 (antisense dTfAmAfAmUfC[UNA-G]fUmUfAmCfGmUfUmGfAmCfAmGdT*dT; sense dTfGmAfGmGfAmGfCmUfUmGfUmGfUmGfUmUfCmGdT*dT) | 9.77 | 
AD00996: Hif2α RNAi trigger, XD-02407 sequence modified to contain UNA at site 7 (antisense dTfUmUfCmAfU[UNA-G]fAmAfAmUfCmGfUmUfAmCfGmUdT*dT; sense fAmCfGmUfAmAfCmGfAmUfUmUfCmAfUmGfAmAfA[invdT]) | 9.93 | 
AD01031: Hif2α RNAi trigger duplex used in the multi-dose conjugate of Example 15 (antisense TUUCAUGAAAUCGUUACGUTT; sense ACGUAACGAUUUCAUGAAAT; Hif2alpha RNAi agent antisense strand; modified_base 2,4,6,8,10,12,14,16,18 /mod_base = “2′-deoxy-2′-fluoro corresponding nucleoside”; modified_base 3,5,7,9,11,13,15,17,19 /mod_base = “2′-O-methyl corresponding nucleoside”; modified_base 21 /mod_base = “5′-phosphorothioate corresponding nucleotide”; Hif2alpha RNAi agent sense strand; modified_base 1,3,5,7,9,11,13,15,17,19 /mod_base = “2′-deoxy-2′-fluoro corresponding nucleoside”; modified_base 2,4,6,8,10,12,14,16,18 /mod_base = “2′-O-methyl corresponding nucleoside”; modified_base 20 /mod_base = “3′-3′-linked nucleotide”; modified_base 1 /mo) |  | Relative Expression day 4 (Hif2α mRNA in kidney tumor) ([2]; RNAi trigger 80 μg, polymer 126 400 μg): 0.20; Relative Expression day 4 (Hif2α) ([3]; RGD-PEG8-ACit-PABC-PNP 0.4×, PEG6-ACit-PABC-PNP): 0.311; Relative Expression day 4 (Hif2α) ([3]; RGD-PEG8-HyNic 0.5×, PEG12-ACit-PABC-PNP): 0.300
AD03265 (antisense UUUCAUGAAAUCGUUACGUUG; sense UAUACGUAACGAUUUCAUGAAAT; Hif2alpha RNAi agent antisense strand; modified_base 2,4,6,8,14 /mod_base = “2′-deoxy-2′-fluoro corresponding nucleoside”; modified_base 1,3,5,7,9,10,11,12,13,15,16,17,18,19,20,21 /mod_base = “2′-O-methyl corresponding nucleoside”; modified_base 2,3,20,21 /mod_base = “5′-phosphorothioate corresponding nucleotide”; Hif2alpha RNAi agent sense strand; modified_base 2 modified base = “2′-hydroxy corresponding nucleoside”; modified_base 10,11,12 /mod_base = “2′-deoxy-2′-fluoro corresponding nucleoside”; modified_base 1,3,4,5,6,7,8,9,13,14,15,16,17,18,19,20,21,22 /mod_base = “2′-O-methyl correspon) |  | Relative Expression day 4 (Hif2α mRNA in kidney tumor) [2, 4]: 0.294
AD03266 (antisense UUUCAUGAAAUCGUUACGUUG; sense ACGUAACGAUUUCAUGAAAT; Hif2alpha RNAi agent antisense strand; modified_base 2,4,6,8,14 /mod_base = “2′-deoxy-2′-fluoro corresponding nucleoside”; modified_base 1,3,5,7,9,10,11,12,13,15,16,17,18,19,20,21 /mod_base = “2′-O-methyl corresponding nucleoside”; modified_base 2,3,20,21 /mod_base = “5′-phosphorothioate corresponding nucleotide”; Hif2alpha RNAi agent sense strand; modified_base 7,8,9 /mod_base = “2′-deoxy-2′-fluoro corresponding nucleoside”; modified_base 1,2,3,4,5,6,10,11,12,13,14,15,16,17,18,19 /mod_base = “2′-O-methyl corresponding nucleoside”; modified_base 20 /mod_base = “3′-3′-linked nucleotide”; modi) |  | Relative Expression day 4 (Hif2α mRNA in kidney tumor) [2, 4]: 0.408

From patent US9976141B2, “Compositions and methods for inhibiting gene expression of Hif2alpha” (Arrowhead Madison Inc., priority 2015, dated 2018)
